BindingDB's records for doi:10.1111/j.1747-0285.2009.00910.x (Universit&Agrave, 2010)

target: Cannabinoid receptor 1 (Rattus norvegicus, UniProt P20272); assay: Binding Assay; conditions: pH 7.4; 25 °C
Description: CB1 competitive assay were performed in rat cerebellar membranes using [3H]WIN 55212-2 from Perkin-Elmer as a radioligand.

Chain of Cannabinoid receptor 1 (P20272 whole entry): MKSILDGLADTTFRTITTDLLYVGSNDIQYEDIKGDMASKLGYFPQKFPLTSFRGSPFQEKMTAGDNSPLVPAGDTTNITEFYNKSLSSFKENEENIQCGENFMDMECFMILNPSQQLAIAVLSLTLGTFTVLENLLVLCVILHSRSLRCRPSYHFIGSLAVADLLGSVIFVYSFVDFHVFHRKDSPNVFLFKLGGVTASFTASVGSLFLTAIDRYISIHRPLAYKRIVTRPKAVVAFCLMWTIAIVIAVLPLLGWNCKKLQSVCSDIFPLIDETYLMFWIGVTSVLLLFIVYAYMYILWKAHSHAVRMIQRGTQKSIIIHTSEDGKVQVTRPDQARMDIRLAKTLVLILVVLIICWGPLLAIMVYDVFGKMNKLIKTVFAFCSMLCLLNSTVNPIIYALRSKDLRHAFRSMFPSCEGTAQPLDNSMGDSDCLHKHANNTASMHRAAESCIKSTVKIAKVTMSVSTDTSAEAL

Structure (SMILES) | Ki [nM]
COc1ccc(/N=C2\C(=O)N(CCN3CCOCC3)c3ccccc32)cc1 [3-(Arylimino)-1-(2-morpholin-4-yl-ethyl)-1,3-dihydro-indole-2-one, 1] | 311
O=C1/C(=N\c2cccc3ccccc23)c2ccccc2N1CCN1CCOCC1 [3-(Arylimino)-1-(2-morpholin-4-yl-ethyl)-1,3-dihydro-indole-2-one, 4] | 553
Clc1ccc(NCc2cn(CCN3CCOCC3)c3ccccc23)cc1 [4-chloro-N-({1-[2-(morpholin-4-yl)ethyl]-1H-indol-3-yl}methyl)aniline, 9] | 24.1
COc1ccc(NCc2cn(CCN3CCOCC3)c3ccccc23)cc1 [4-methoxy-N-({1-[2-(morpholin-4-yl)ethyl]-1H-indol-3-yl}methyl)aniline, 7] | 42.6
Cc1ccc(NCc2cn(CCN3CCOCC3)c3ccccc23)cc1 [4-methyl-N-({1-[2-(morpholin-4-yl)ethyl]-1H-indol-3-yl}methyl)aniline, 10] | 15.7
COc1ccc(/N=C2\C(=O)N(CCN3CCOCC3)c3ccc(Cl)cc32)cc1 [5-Substituted derivative, 2] | 74.6
COc1ccc(/N=C2\C(=O)N(CCN3CCOCC3)c3ccc(C)cc32)cc1 [5-Substituted derivative, 3] | 390
O=C1/C(=N\c2cccc3ccccc23)c2cc(Cl)ccc2N1CCN1CCOCC1 [5-Substituted derivative, 5] | 8.4
Cc1ccc2c(c1)/C(=N/c1cccc3ccccc13)C(=O)N2CCN1CCOCC1 [5-Substituted derivative, 6] | 69.6
c1ccc2c(NCc3cn(CCN4CCOCC4)c4ccccc34)cccc2c1 [N-({1-[2-(morpholin-4-yl)ethyl]-1H-indol-3-yl}methyl)naphthalen-1-amine, 8] | 49.4
